Test results published in ChEMBL document CHEMBL4507311, “Data for DCP probe A-1155463” (2021).

Experiments:
[1] = system: Phosphatidylinositol 4,5-bisphosphate 3-kinase catalytic subunit alpha isoform (Homo sapiens), P42336 [E542K]; settings: Compound concentration 1000.0 nM
[2] = biological target: NUAK family SNF1-like kinase 1 (Homo sapiens) (UniProt O60285); settings: Compound concentration 1000.0 nM
[3] = biological target: Bone morphogenetic protein receptor type-1A (Homo sapiens) (UniProt P36894); settings: Compound concentration 1000.0 nM
[4] = biological target: Mitogen-activated protein kinase 15 (Homo sapiens) (UniProt Q8TD08); settings: Compound concentration 1000.0 nM
[5] = system: Phosphatidylinositol 4,5-bisphosphate 3-kinase catalytic subunit alpha isoform (Homo sapiens), P42336 [C420R]; settings: Compound concentration 1000.0 nM
[6] = biological target: Cyclin-dependent kinase 15 (Homo sapiens) (UniProt Q96Q40); settings: Compound concentration 1000.0 nM
[7] = biological target: G protein-coupled receptor kinase 3 (Homo sapiens) (UniProt P35626); settings: Compound concentration 1000.0 nM
[8] = system: Epidermal growth factor receptor (Homo sapiens), P00533 [UNDEFINED MUTATION]; settings: Compound concentration 1000.0 nM
[9] = biological target: Phosphatidylinositol 4,5-bisphosphate 3-kinase catalytic subunit delta isoform (Homo sapiens) (UniProt O00329); settings: Compound concentration 1000.0 nM
[10] = biological target: Mitogen-activated protein kinase 13 (Homo sapiens) (UniProt O15264); settings: Compound concentration 1000.0 nM
[11] = biological target: Cyclin-dependent kinase 16 (Homo sapiens) (UniProt Q00536); settings: Compound concentration 1000.0 nM
[12] = biological target: Serine/threonine-protein kinase tousled-like 1 (Homo sapiens) (UniProt Q9UKI8); settings: Compound concentration 1000.0 nM
[13] = biological target: Aurora kinase C (Homo sapiens) (UniProt Q9UQB9); settings: Compound concentration 1000.0 nM
[14] = biological target: Glycogen synthase kinase-3 beta (Homo sapiens) (UniProt P49841); settings: Compound concentration 1000.0 nM
[15] = system: Tyrosine-protein kinase ABL1 (Homo sapiens), P00519 [H396P]; settings: Compound concentration 1000.0 nM
[16] = biological target: Serine/threonine-protein kinase Nek3 (Homo sapiens) (UniProt P51956); settings: Compound concentration 1000.0 nM
[17] = biological target: Interferon-induced, double-stranded RNA-activated protein kinase (Homo sapiens) (UniProt P19525); settings: Compound concentration 1000.0 nM
[18] = biological target: Mitogen-activated protein kinase kinase kinase 6 (Homo sapiens) (UniProt O95382); settings: Compound concentration 1000.0 nM
[19] = biological target: T1, Muscarinic acetylcholine receptor M5 (Homo sapiens) (UniProt P08912); settings: Compound concentration 10.0 uM
T1 sequence (whole entry): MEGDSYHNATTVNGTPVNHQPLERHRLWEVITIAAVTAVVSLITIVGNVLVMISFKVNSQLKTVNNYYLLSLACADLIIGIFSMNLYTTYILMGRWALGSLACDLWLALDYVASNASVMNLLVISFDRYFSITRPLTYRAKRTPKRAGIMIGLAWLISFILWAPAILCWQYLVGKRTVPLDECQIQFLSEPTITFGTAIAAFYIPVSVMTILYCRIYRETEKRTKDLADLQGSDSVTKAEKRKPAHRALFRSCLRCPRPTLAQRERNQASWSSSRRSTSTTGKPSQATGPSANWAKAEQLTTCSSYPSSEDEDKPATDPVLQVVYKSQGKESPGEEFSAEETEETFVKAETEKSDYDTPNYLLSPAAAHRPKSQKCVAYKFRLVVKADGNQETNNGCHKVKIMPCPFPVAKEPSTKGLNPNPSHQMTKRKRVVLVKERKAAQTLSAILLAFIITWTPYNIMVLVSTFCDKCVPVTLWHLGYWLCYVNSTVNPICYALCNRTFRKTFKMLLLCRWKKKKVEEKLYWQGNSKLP

[20] = biological target: Serine/threonine-protein kinase pim-1 (Homo sapiens) (UniProt P11309); settings: Compound concentration 1000.0 nM
[21] = biological target: Activin receptor type-1-like (Homo sapiens) (UniProt P37023); settings: Compound concentration 1000.0 nM
[22] = biological target: Mitogen-activated protein kinase 10 (Homo sapiens) (UniProt P53779); settings: Compound concentration 1000.0 nM
[23] = biological target: Phosphorylase b kinase regulatory subunit alpha, liver isoform (Homo sapiens) (UniProt P46019); settings: Compound concentration 1000.0 nM
[24] = biological target: Activated CDC42 kinase 1 (Homo sapiens) (UniProt Q07912); settings: Compound concentration 1000.0 nM
[25] = biological target: Vascular endothelial growth factor receptor 3 (Homo sapiens) (UniProt P35916); settings: Compound concentration 1000.0 nM
[26] = biological target: Mitogen-activated protein kinase 14 (Homo sapiens) (UniProt Q16539); settings: Compound concentration 1000.0 nM
[27] = system: Fibroblast growth factor receptor 3 (Homo sapiens), P22607 [G697C]; settings: Compound concentration 1000.0 nM
[28] = biological target: Mitogen-activated protein kinase 8 (Homo sapiens) (UniProt P45983); settings: Compound concentration 1000.0 nM
[29] = biological target: Ephrin type-B receptor 1 (Homo sapiens) (UniProt P54762); settings: Compound concentration 1000.0 nM
[30] = biological target: STE20-like serine/threonine-protein kinase (Homo sapiens) (UniProt Q9H2G2); settings: Compound concentration 1000.0 nM
[31] = biological target: Sodium-dependent noradrenaline transporter (Homo sapiens) (UniProt P23975); settings: Compound concentration 10.0 uM
[32] = system: Phosphatidylinositol 4,5-bisphosphate 3-kinase catalytic subunit alpha isoform (Homo sapiens), P42336 [E545A]; settings: Compound concentration 1000.0 nM
[33] = biological target: STE20/SPS1-related proline-alanine-rich protein kinase (Homo sapiens) (UniProt Q9UEW8); settings: Compound concentration 1000.0 nM
[34] = biological target: Serine/threonine-protein kinase PLK1 (Homo sapiens) (UniProt P53350); settings: Compound concentration 1000.0 nM
[35] = biological target: Tyrosine-protein kinase Blk (Homo sapiens) (UniProt P51451); settings: Compound concentration 1000.0 nM
[36] = biological target: 5'-AMP-activated protein kinase catalytic subunit alpha-1 (Homo sapiens) (UniProt Q13131); settings: Compound concentration 1000.0 nM
[37] = biological target: Cyclin-dependent kinase-like 2 (Homo sapiens) (UniProt Q92772); settings: Compound concentration 1000.0 nM

Sequence of Ephrin type-B receptor 1 (Homo sapiens) (P54762 whole entry): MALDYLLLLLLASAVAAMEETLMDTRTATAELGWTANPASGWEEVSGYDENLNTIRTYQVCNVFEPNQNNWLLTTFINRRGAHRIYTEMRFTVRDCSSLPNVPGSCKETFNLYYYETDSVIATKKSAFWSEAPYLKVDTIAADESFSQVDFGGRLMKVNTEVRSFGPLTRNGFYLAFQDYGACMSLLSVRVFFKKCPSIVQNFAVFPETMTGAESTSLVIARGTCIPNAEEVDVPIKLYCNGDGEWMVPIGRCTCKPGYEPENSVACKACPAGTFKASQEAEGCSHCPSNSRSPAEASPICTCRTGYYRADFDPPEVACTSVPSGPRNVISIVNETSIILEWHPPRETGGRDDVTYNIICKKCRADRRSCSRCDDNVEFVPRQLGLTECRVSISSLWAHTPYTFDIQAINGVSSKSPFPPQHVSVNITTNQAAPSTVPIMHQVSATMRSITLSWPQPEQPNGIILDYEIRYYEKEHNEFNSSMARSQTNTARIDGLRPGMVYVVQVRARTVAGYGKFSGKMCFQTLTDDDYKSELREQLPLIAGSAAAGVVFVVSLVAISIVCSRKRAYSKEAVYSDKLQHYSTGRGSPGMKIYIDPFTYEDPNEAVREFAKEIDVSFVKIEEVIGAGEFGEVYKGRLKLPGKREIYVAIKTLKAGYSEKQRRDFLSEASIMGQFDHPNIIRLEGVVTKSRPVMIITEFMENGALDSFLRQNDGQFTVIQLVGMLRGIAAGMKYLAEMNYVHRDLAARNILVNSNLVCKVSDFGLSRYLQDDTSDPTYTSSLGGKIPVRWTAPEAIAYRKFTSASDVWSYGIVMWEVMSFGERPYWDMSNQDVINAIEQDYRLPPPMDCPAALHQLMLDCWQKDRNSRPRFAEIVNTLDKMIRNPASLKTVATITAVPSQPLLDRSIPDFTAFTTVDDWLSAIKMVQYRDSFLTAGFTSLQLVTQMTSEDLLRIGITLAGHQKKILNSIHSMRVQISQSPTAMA
Sequence of Cyclin-dependent kinase 16 (Homo sapiens) (Q00536 whole entry): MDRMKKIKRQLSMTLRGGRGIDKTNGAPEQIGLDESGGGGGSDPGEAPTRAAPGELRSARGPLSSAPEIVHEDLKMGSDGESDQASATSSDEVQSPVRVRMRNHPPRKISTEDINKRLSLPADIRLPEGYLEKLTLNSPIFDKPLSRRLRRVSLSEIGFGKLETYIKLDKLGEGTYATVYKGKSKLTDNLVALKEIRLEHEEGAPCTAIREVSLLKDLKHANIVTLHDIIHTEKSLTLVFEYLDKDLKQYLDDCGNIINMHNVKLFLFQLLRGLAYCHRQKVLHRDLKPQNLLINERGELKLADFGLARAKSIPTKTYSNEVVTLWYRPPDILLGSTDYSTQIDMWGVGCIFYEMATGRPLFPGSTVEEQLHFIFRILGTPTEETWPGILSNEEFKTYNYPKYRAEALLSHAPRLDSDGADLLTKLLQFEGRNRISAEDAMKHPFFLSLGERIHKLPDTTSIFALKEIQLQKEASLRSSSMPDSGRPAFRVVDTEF
Sequence of Cyclin-dependent kinase 15 (Homo sapiens) (Q96Q40 whole entry): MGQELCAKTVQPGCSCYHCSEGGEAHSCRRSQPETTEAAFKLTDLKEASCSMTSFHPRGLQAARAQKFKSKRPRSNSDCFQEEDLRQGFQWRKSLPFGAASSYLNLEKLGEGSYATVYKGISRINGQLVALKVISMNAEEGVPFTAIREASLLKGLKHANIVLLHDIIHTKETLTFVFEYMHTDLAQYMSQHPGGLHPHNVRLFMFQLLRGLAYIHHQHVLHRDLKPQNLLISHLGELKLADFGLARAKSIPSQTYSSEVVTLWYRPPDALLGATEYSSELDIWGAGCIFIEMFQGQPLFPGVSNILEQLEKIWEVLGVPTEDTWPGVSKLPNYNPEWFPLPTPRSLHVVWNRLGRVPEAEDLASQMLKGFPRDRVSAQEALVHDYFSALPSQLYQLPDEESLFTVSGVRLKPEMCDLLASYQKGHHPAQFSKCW
Sequence of Phosphatidylinositol 4,5-bisphosphate 3-kinase catalytic subunit alpha isoform (Homo sapiens), P42336 [C420R] (P42336 whole entry C420R, canonical isoform): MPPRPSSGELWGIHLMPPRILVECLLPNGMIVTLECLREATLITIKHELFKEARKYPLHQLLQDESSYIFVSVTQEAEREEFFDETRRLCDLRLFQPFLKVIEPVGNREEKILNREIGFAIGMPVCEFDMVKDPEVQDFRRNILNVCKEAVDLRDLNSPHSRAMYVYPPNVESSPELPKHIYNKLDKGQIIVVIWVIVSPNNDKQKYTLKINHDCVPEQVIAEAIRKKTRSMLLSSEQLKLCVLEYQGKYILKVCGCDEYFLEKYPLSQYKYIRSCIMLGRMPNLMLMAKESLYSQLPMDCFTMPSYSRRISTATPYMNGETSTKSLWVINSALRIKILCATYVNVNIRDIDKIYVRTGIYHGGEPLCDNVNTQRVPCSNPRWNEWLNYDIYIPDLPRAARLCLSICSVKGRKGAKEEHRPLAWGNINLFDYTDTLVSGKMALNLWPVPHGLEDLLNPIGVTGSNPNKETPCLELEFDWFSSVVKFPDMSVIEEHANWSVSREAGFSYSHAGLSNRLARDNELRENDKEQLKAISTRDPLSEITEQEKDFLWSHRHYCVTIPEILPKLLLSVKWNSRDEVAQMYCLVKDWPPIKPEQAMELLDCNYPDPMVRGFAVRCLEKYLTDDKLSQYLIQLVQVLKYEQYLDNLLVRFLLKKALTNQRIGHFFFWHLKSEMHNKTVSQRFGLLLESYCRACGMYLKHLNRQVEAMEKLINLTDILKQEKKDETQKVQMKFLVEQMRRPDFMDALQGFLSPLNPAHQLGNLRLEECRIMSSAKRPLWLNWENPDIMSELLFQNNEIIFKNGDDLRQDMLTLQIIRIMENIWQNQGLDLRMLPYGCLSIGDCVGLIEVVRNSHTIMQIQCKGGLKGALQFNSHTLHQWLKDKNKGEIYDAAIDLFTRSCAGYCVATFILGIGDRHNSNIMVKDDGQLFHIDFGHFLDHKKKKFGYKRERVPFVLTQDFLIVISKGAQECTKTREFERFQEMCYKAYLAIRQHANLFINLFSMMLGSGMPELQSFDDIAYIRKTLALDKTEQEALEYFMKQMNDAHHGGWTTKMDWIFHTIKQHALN
Sequence of Mitogen-activated protein kinase 8 (Homo sapiens) (P45983 whole entry): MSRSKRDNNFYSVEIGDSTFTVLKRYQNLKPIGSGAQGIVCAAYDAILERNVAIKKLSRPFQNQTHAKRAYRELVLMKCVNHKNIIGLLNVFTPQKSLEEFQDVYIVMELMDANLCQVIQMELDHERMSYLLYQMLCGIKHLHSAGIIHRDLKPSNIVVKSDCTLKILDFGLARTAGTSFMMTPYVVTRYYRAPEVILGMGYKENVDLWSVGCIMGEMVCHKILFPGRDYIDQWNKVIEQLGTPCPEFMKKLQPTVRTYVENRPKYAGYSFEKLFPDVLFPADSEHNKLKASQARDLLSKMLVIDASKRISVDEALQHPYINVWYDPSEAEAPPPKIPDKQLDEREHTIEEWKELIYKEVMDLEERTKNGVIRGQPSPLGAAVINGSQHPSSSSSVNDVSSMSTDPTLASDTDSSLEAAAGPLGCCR
Sequence of Activated CDC42 kinase 1 (Homo sapiens) (Q07912 whole entry, looked up): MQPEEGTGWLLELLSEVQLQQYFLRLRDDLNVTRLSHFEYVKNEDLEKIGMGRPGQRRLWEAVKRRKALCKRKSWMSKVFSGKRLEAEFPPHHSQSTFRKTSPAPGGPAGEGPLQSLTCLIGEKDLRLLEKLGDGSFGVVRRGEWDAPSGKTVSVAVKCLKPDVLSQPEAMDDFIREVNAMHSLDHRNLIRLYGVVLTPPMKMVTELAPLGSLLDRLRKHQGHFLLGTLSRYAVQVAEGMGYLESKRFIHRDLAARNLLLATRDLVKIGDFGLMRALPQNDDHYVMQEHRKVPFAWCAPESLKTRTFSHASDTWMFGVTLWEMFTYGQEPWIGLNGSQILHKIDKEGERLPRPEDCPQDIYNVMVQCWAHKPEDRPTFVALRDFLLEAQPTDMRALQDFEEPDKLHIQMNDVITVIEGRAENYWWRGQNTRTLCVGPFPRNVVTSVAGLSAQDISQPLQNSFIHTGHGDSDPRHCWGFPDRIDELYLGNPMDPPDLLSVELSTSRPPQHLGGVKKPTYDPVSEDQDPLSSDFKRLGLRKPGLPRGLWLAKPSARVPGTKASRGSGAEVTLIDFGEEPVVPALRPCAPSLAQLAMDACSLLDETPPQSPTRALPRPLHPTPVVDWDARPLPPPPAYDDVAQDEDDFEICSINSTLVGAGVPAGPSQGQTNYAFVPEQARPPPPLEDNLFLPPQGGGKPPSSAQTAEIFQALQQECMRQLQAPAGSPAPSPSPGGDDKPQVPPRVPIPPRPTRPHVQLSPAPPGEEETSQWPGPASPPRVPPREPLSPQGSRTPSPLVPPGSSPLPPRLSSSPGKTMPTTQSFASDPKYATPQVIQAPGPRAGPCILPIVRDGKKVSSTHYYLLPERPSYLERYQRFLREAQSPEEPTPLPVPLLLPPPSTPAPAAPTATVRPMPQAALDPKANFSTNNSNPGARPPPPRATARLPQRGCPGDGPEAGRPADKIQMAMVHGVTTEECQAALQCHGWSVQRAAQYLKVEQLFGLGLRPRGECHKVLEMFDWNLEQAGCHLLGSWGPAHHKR
Sequence of Mitogen-activated protein kinase 13 (Homo sapiens) (O15264 whole entry): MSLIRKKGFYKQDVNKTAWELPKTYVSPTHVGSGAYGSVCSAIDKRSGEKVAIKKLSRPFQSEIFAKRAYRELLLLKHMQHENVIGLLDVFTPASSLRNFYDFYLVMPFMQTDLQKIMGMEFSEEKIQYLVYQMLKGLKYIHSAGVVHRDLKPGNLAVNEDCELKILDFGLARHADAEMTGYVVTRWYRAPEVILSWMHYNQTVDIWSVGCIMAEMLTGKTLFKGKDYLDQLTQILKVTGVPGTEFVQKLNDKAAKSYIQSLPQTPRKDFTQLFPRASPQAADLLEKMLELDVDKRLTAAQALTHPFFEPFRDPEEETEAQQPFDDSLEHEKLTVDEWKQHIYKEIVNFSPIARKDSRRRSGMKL

SMILES: CN(C)CC#Cc1ccc(OCCCc2sc(N3CCc4cccc(C(=O)Nc5nc6ccccc6s5)c4C3)nc2C(=O)O)c(F)c1 [A-1155463]
- residual activity [1]: 72%
- residual activity [2]: 80%
- residual activity [3]: 99%
- residual activity [4]: 100%
- residual activity [5]: 100%
- residual activity [6]: 100%
- residual activity [7]: 92%
- residual activity [8]: 94%
- residual activity [9]: 100%
- residual activity [10]: 97%
- residual activity [11]: 100%
- residual activity [12]: 86%
- residual activity [13]: 9%
- residual activity [14]: 93%
- residual activity [15]: 99%
- residual activity [16]: 100%
- residual activity [17]: 100%
- residual activity [18]: 82%
- inhibition [19]: 12.6%
- residual activity [20]: 100%
- residual activity [21]: 82%
- residual activity [22]: 71%
- residual activity [23]: 100%
- residual activity [24]: 100%
- residual activity [25]: 100%
- residual activity [26]: 100%
- residual activity [27]: 88%
- residual activity [28]: 62%
- residual activity [29]: 100%
- residual activity [30]: 100%
- inhibition [31]: 42.9%
- residual activity [32]: 100%
- residual activity [33]: 100%
- residual activity [34]: 100%
- residual activity [35]: 92%
- residual activity [36]: 100%
- residual activity [37]: 98%
